Columns and labels:
[1] = test system: human cryopreserved hepatocytes; test: Metabolic stability (hepatocytes); format: in vitro ADME; details: from human CLhep
[2] = male, Beagle, in vivo
Method: (§1) The protein binding in plasma was determined using a Rapid Equilibrium Dialysis Device (Thermo Scientific RED Device) or 96-well dialyzer apparatus (HTDialysis LLC). […] If required, plasma samples were pre-incubated (2 hours at 37° C.) with diisopropyl fluorophosphate (DFP) at the final concentration of 100 μM to prevent compound degradation due to amide hydrolysis. Appropriate volumes of spiked samples along with blank phosphate buffer were added to either device and incubated at 37° C. for a total of 5 hours with agitation at 500 rpm. Following incubation, an equal aliquot of dialysed matrix (plasma or buffer) is added to an equal volume of the opposite blank matrix such that the volume of buffer to plasma are equal. Mixed matrix samples were extracted by protein precipitation using acetonitrile containing the appropriate IS. Samples were then centrifuged for 10 min at 2800 rpm. Supernatants were collected and diluted and then injected on to an HPLC-MS/MS or UPLC-MS/MS system. Samples were analyzed by monitoring the appropriate parent/daughter ion transitions for the test and control compounds. The peak area ratios were used to measure test item concentrations. The fraction unbound (Afu) was determined as the ratio of the peak area ratio in buffer divided by the peak area ratio in plasma.
The PK properties of test articles were determined in male Sprague-Dawley Crl:CD(SD) rats, male Beagle dogs and male cynomolgus monkeys. […]
Following dose administration, 8-9 serial blood samples were collected over 24 hours. […] The processed supernatant was analyzed using UPLC or LC-MS/MS using specific parent/daughter ion pairs for the test article and IS. Plasma concentrations were determined using a calibration curve prepared using known concentrations of analyte. Pharmacokinetic parameters utilizing measured concentrations were calculated using Phoenix WinNonlin. The unbound plasma clearance was calculated as the ratio of the total body clearance divided by the fraction unbound in plasma.

[3] = biological target: P-gp (P-glycoprotein, MDR1) (Homo sapiens (Human), UniProt P08183); test: MDCKII-MDR1 permeability, efflux ratio; format: in vitro ADME; details: dog, MDCK-MDR1, pH 7.4, MDCKII-MDR1 cells, read-out: ER MDR1
Method: The blood brain barrier (BBB) separates circulating blood from the extracellular fluid of the central nervous system (CNS). The passive membrane permeability (Papp) and the P-gp (P-glycoprotein) substrate efflux potential were determined using the MDCKII-MDR1 cell line as an in vitro model of the effective permeability of a compound through the BBB. A bidirectional assay (Apical to Basolateral (A→B) and Basolateral to Apical (B→A)), in the absence and in the presence of GF120918 (a P-gp inhibitor) was conducted using pre-plated MDCKII-MDR1 cells (Corning HTS Transwell-96) obtained from SOLVO Biotechnology. The assay was run at 3 μM for 90 min (minutes) in triplicate using a HBSS+12.5 mM HEPES pH 7.4 transport buffer. Following incubation of samples from donor and receiver, wells were removed and measured by LC-MS/MS. Samples were extracted by protein precipitation with acetonitrile containing an appropriate internal standard (IS) having a known mass and molecular weight. The precipitate was centrifuged for 10 min at 3000 rpm (revolutions per minute). The supernatants were then collected, diluted if necessary, and injected on to the LC-MS/MS system. […] Papp (apparent permeability expressed in nm/sec [nanometer/second]) values were calculated according to the following equation: […]
Where dQ/dt is the permeability rate, C0 is the initial concentration in the donor solution (expressed as IS ratio), A and B are the surface areas of the filter (the surface area of the cell monolayer).
Monolayer efflux ratios (ER) were derived using the following equation: […]

[4] = male, Sprague-Dawley Crl:CD(SD), in vivo
Method: as §1
(§2) The PK properties of test articles were determined in male Sprague-Dawley Crl:CD(SD) rats, male Beagle dogs and male cynomolgus monkeys. Studies were conducted to the highest standards of animal welfare in accordance with national legislation and under approval of the internal animal care and use committees.
(§3) Compounds were administered by IV bolus to animals following an overnight fast. […] The formulations were administered at dose volumes ranging from 0.5-2 mL/kg. The IV dose ranged from 0.5-1 mg/kg.
(§4) Following dose administration, 8-9 serial blood samples were collected over 24 hours. Samples were mixed with anticoagulant and placed on wet ice prior to processing. Plasma was harvested following centrifugation, extracted using protein precipitation with acetonitrile containing IS. The processed supernatant was analyzed using UPLC or LC-MS/MS using specific parent/daughter ion pairs for the test article and IS. Plasma concentrations were determined using a calibration curve prepared using known concentrations of analyte. Pharmacokinetic parameters utilizing measured concentrations were calculated using Phoenix WinNonlin. The unbound plasma clearance was calculated as the ratio of the total body clearance divided by the fraction unbound in plasma.

[5] = test system: human cryopreserved hepatocytes; test: Metabolic stability (hepatocytes); format: in vitro ADME; details: well-stirred model
Description: Hepatic clearance is expressed as mL/min/kg.

[6] = male, cynomolgus monkey, in vivo
Method: as §1, §2, §3, §4

TNF/zVAD = details: dose of 30 mg/kg, Table 2 of WO 2014/125444; cited from earlier work
GST-hRIPK1 (8-327) = GST-hRIPK1 (8-327) (Homo sapiens (Human), UniProt Q13546); test: ADP-Glo kinase assay; format: biochemical; details: 50 μM ATP
GST-hRIPK1 (8-327), sequence (Q13546 8-327): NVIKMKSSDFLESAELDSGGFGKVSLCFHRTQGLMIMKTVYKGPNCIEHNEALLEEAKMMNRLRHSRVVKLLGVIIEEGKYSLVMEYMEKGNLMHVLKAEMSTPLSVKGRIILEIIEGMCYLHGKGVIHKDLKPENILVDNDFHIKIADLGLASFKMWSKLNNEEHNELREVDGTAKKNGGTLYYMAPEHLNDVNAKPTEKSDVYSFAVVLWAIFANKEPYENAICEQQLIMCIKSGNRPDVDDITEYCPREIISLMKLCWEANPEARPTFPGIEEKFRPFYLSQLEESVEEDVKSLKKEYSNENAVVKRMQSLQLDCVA
Method: GST-hRIPK1 (8-327) enzyme was generated by Proteros GmbH by Baculovirus expression system.
Test compounds were diluted in DMSO and 0.1 μL of solution was dispensed to each well of a 384-well white solid microplate. The assay buffer was 50 mM HEPES pH 7.5, 50 mM NaCl, 30 mM MgCl2. The buffer was supplemented with 0.02% CHAPS, 0.01% of Pluronic F127, 0.1 mg/mL BSA and 1 mM DTT. MnCl2, 5 mM, was included in the assay buffer on the day of the experiment. The enzymatic reaction comprised 1.5 μg/mL GST-hRIPK1 (8-327) and 50 μM ATP for receptor interacting protein kinase 1 […]. 5 μL of enzyme and 5 μL of ATP were added to the plate at twice the final assay concentration and incubated at room temperature for 3 hours. Following this reaction, 10 μL of ADP-Glo reagent (Promega) was added to each well and incubated for 40 min at room temperature. This stops the kinase reaction and depletes any remaining ATP. […] The luminescence is then measured with the Envision (PerkinElmer) plate reader. Test compound inhibition was expressed as percent inhibition of internal assay controls. For concentration response curves, normalized data is fit and IC50 determined using XL-fit (IDBS) for Excel. […]
Test compound inhibition was expressed as percent inhibition of internal assay controls. For concentration response curves, normalized data is fit and IC50 determined using XL-fit (IDBS) for Excel. […]

P-gp (P-glycoprotein, MDR1), sequence (P08183 whole entry): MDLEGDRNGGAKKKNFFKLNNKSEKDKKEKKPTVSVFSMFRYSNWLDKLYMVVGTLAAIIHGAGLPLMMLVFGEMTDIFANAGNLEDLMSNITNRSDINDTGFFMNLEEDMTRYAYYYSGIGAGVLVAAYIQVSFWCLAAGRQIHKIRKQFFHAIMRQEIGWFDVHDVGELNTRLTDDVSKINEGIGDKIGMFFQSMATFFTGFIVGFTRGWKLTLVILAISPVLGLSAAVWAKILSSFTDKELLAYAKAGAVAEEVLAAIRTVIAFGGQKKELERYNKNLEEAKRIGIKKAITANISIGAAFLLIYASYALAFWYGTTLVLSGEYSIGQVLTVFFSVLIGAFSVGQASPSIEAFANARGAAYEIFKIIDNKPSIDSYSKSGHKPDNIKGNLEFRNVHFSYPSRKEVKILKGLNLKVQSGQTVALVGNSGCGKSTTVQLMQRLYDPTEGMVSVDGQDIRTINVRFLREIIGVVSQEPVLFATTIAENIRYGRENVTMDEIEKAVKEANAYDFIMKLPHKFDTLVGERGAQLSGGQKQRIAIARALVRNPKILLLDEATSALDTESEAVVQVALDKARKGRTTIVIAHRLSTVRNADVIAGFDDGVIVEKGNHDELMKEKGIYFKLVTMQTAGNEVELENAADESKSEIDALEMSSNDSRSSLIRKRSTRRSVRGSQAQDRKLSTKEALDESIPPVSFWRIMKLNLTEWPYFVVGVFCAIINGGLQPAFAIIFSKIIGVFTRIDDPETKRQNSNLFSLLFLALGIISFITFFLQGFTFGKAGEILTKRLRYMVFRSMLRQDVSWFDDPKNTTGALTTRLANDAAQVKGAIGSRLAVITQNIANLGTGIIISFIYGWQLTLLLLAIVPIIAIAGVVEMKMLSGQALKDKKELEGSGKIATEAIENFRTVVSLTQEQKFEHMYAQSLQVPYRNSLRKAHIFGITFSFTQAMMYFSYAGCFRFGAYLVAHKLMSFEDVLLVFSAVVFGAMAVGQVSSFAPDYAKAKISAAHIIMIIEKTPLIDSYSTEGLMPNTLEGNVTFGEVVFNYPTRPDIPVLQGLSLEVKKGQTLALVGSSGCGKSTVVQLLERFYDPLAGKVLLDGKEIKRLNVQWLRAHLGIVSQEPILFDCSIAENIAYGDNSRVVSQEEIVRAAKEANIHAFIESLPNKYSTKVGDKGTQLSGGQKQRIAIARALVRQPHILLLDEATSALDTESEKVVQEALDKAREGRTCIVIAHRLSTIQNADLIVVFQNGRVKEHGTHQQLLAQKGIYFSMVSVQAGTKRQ

With `CN1C(=O)[C@@H](NC(=O)c2nnc(Cc3ccccc3)[nH]2)COc2ccccc21` [A, reference compound] the “clearance as % of liver blood flow” value [1] was “approximately 32%”, the “Dog unbound CL” value [2] was 240 mL/min/kg and the efflux ratio at 90 min, 3 μM [3] was 6.4. For the same molecule, the “Rat unbound CL” value [4] was 77 mL/min/kg, the “Human hepatocyte CLhep Avg” value [5] was 6.8 mL/min/kg and the “Cyno unbound CL” value [6] was 117 mL/min/kg. The “inhibition of temperature loss” value (TNF/zVAD) was 93%.

`O=C(N[C@H]1COC[C@H]2CCCN2C1=O)c1nnc(Cc2ccccc2)[nH]1` [Example 65, N-[(4S,9aR)-5-oxo-octahydropyrrolo[2,1-c][1,4]oxazepin-4-yl]-5-benzyl-4H-1,2,4-triazole-3-carboxamide] showed an IC50 (GST-hRIPK1 (8-327)) of over 10 µM.

— US9815850B2, “Compounds, compositions and methods” (Denali Therapeutics Inc., priority 2016, dated 2017)
